Article PMC7280082 (Acta Pharmaceutica Sinica. B, 2019)

What was measured:
WT HIV-1 (IIIB) = test: microbe, parasite or virus in culture; format: cell-based; conditions: for EC50: Human immunodeficiency virus 1, IIIB, MT4, read-out: EC50 IIIB; for SI IIIB: ratio of CC50/EC50
HIV-2 strain (ROD) = test: Anti-HIV-2; format: cell-based; conditions: for EC50: Human immunodeficiency virus 2, MT4, read-out: EC50 ROD; for SI ROD: ratio of CC50/EC50
[1] = system: HIV-1 L100I mutant strain; test: microbe, parasite or virus in culture; format: cell-based; conditions: for SI L100I: CC50/EC50; for EC50: Human immunodeficiency virus 1, MT4, read-out: EC50 L100I; for RF L100I: ratio of EC50 (resistant viral strain)/EC50 (wild-type viral strain)
[2] = system: HIV-1 K103N mutant strain; test: microbe, parasite or virus in culture; format: cell-based; conditions: for SI K103N: CC50/EC50; for EC50: Human immunodeficiency virus 1, MT4, read-out: EC50 K103N; for RF K103N: ratio of EC50 (resistant viral strain)/EC50 (wild-type viral strain)
[3] = system: HIV-1 Y181C mutant strain; test: microbe, parasite or virus in culture; format: cell-based; conditions: for SI Y181C: CC50/EC50; for EC50: Human immunodeficiency virus 1, MT4, read-out: EC50 Y181C; for RF Y181C: ratio of EC50 (resistant viral strain)/EC50 (wild-type viral strain)
[4] = system: HIV-1 Y188L mutant strain; test: microbe, parasite or virus in culture; format: cell-based; conditions: for SI Y188L: CC50/EC50; for EC50: Human immunodeficiency virus 1, MT4, read-out: EC50 Y188L; for RF Y188L: ratio of EC50 (resistant viral strain)/EC50 (wild-type viral strain)
[5] = system: HIV-1 E138K mutant strain; test: microbe, parasite or virus in culture; format: cell-based; conditions: for SI E138K: CC50/EC50; for EC50: Human immunodeficiency virus 1, MT4, read-out: EC50 E138K; for RF E138K: ratio of EC50 (resistant viral strain)/EC50 (wild-type viral strain)
[6] = system: HIV-1 F227L + V106A double-mutant strain; test: microbe, parasite or virus in culture; format: cell-based; conditions: for SI F227L + V106A: CC50/EC50; for EC50: Human immunodeficiency virus 1, MT4, read-out: EC50 F227L + V106A; for RF F227L + V106A: ratio of EC50 (resistant viral strain)/EC50 (wild-type viral strain)
[7] = system: HIV-1 RES056 (K103N + Y181C) double-mutant strain; test: microbe, parasite or virus in culture; format: cell-based; conditions: for SI RES056: CC50/EC50; for EC50: Human immunodeficiency virus 1, MT4, read-out: EC50 RES056; for RF RES056: ratio of EC50 (resistant viral strain)/EC50 (wild-type viral strain)
WT HIV-1 RT = WT HIV-1 RT (Human immunodeficiency virus type 1 group M subtype B, UniProt P03366); test: Recombinant HIV-1 RT inhibitory assay; format: biochemical
[8] = Cytotoxicity in mock-infected MT-4 cell cultures, MTT method; conditions: human, mock-infected MT-4 cells

Row | Structure (SMILES) | EC50 (WT HIV-1 (IIIB)) [nM] | SI IIIB (WT HIV-1 (IIIB)) | EC50 (HIV-2 strain (ROD)) [nM] | SI ROD (HIV-2 strain (ROD)) | SI L100I [1] | EC50 [1] [nM] | RF L100I [1] | EC50 [2] [nM] | RF K103N [2] | EC50 [3] [nM] | RF Y181C [3] | EC50 [4] [nM] | RF Y188L [4] | EC50 [5] [nM] | RF E138K [5] | EC50 [6] [nM] | RF F227L + V106A [6] | EC50 [7] [nM] | RF RES056 [7] | CC50 at 5 days [8] [nM] | further results
1 | Cc1cc(-c2ccco2)cc(C)c1Oc1nc(NC2CCN(Cc3ccc(S(N)(=O)=O)cc3)CC2)nc2ccsc12 [Compound 11, 4-((4-((4-(4-(Furan-2-yl)-2,6-dimethylphenoxy)thieno[3,2-d]pyrimidin-2-yl)amino)piperidin-1-yl)methyl)benzenesulfonamide] | 17.7 ± 4.83 | 762 | 4150 ± 1780 | 3 | 151 | 89.3 ± 23 | 5.0 | 20.7 ± 2.75 | 1.2 | 63.5 ± 8.75 | 3.6 | 53.4 ± 2.15 | 3.0 | 49.9 ± 0.35 | 2.8 | 85.7 ± 9.71 | 4.8 | 565 ± 22.5 | 31.9 | 13500 ± 3940 | SI K103N [2]: 651; SI Y181C [3]: 213; SI Y188L [4]: 253; SI E138K [5]: 271; SI F227L + V106A [6]: 158; SI RES056 [7]: 24; IC50 (WT HIV-1 RT): 243 ± 37 nM
2 | Cc1cc(-c2ccco2)cc(C)c1Oc1nc(NC2CCN(Cc3ccc(C(N)=O)cc3)CC2)nc2ccsc12 [Compound 12, 4-((4-((4-(4-(Furan-2-yl)-2,6-dimethylphenoxy)thieno[3,2-d]pyrimidin-2-yl)amino)piperidin-1-yl)methyl)benzamide] | 93.3 ± 82.8 | 310 | 25300 | 1 | 70 | 414 ± 37.9 | 4.4 | 129 ± 5.87 | 1.4 | 511 ± 77.2 | 5.5 | 307 ± 58.2 | 3.3 | 287 ± 4.98 | 3.1 | 1110 ± 269 | 11.9 | 2900 ± 119 | 31.1 | 28900 ± 15600 | SI K103N [2]: 224; SI Y181C [3]: 57; SI Y188L [4]: 94; SI E138K [5]: 101; SI F227L + V106A [6]: 26; SI RES056 [7]: 10; IC50 (WT HIV-1 RT): 901 ± 45 nM
3 | Cc1cc(-c2ccoc2)cc(C)c1Oc1nc(NC2CCN(Cc3ccc(S(N)(=O)=O)cc3)CC2)nc2ccsc12 [Compound 13, 4-((4-((4-(4-(Furan-3-yl)-2,6-dimethylphenoxy)thieno[3,2-d]pyrimidin-2-yl)amino)piperidin-1-yl)methyl)benzenesulfonamide] | 63.6 ± 11.4 | 246 | 6800 ± 1220 | 2 | 84 | 186 ± 29.4 | 2.9 | 62.9 ± 10.4 | 1.0 | 197 ± 16.1 | 3.1 | 133 ± 3.35 | 2.1 | 193 ± 14.8 | 3.0 | 358 ± 18.4 | 5.6 | 1190 ± 184 | 18.8 | 15600 ± 4970 | SI K103N [2]: 249; SI Y181C [3]: 79; SI Y188L [4]: 117; SI E138K [5]: 81; SI F227L + V106A [6]: 44; SI RES056 [7]: 13; IC50 (WT HIV-1 RT): 265 ± 59 nM
4 | Cc1cc(-c2ccoc2)cc(C)c1Oc1nc(NC2CCN(Cc3ccc(C(N)=O)cc3)CC2)nc2ccsc12 [Compound 14, 4-((4-((4-(4-(Furan-3-yl)-2,6-dimethylphenoxy)thieno[3,2-d]pyrimidin-2-yl)amino)piperidin-1-yl)methyl)benzamide] | 57.5 ± 12.7 | 275 | 3180 ± 832 | 5 | 60 | 262 ± 75 | 4.6 | 74.8 ± 2.93 | 1.3 | 180 ± 33.4 | 3.1 | 222 ± 30.5 | 3.9 | 177 ± 2.93 | 3.1 | 525 ± 21.1 | 9.1 | 813 ± 177 | 14.1 | 15800 ± 7040 | SI K103N [2]: 212; SI Y181C [3]: 88; SI Y188L [4]: 71; SI E138K [5]: 89; SI F227L + V106A [6]: 30; SI RES056 [7]: 19; IC50 (WT HIV-1 RT): 249 ± 1 nM
5 | Cc1cc(-c2ccsc2)cc(C)c1Oc1nc(NC2CCN(Cc3ccc(C(N)=O)cc3)CC2)nc2ccsc12 [Compound 18, 4-((4-((4-(2,6-Dimethyl-4-(thiophen-3-yl)phenoxy)thieno[3,2-d]pyrimidin-2-yl)amino)piperidin-1-yl)methyl)benzamide] | 240 ± 94.3 | 71 | > 17000 | <1 | 18 | 925 ± 286 | 3.8 | 171 ± 56.9 | 0.7 | 741 ± 154 | 3.1 | 628 ± 49.6 | 2.6 | 739 ± 318 | 3.1 | 854 ± 186 | 3.6 | 4520 ± 1450 | 18.8 | 17000 ± 12900 | SI K103N [2]: 99; SI Y181C [3]: 23; SI Y188L [4]: 27; SI E138K [5]: 23; SI F227L + V106A [6]: 20; SI RES056 [7]: 4
6 | O=C1Nc2ccc(Cl)cc2[C@@](C#CC2CC2)(C(F)(F)F)O1 [EFV, efavirenz, reference compound] | 5.25 ± 1.98 | – | > 5330 | – | – | 46.5 ± 9.11 | – | 111 ± 35.4 | – | 6.33 ± 1.06 | – | 306 ± 53.9 | – | – | – | 268 ± 48.7 | – | – | – | > 6330 | –
7 | Cc1cc(C#N)cc(C)c1Oc1nc(Nc2ccc(C#N)cc2)nc(N)c1Br [ETR, Etravirine, reference compound] | 5.03 ± 1.68 | – | > 4590 | – | – | 6.35 ± 1.77 | 1.3 | 3.13 ± 0.42 | 0.6 | 12.2 ± 2.63 | 2.4 | 17.3 ± 5.53 | 3.5 | 8.07 ± 2.52 | 1.6 | 14.2 ± 5.14 | 2.8 | 42.5 ± 15.1 | 8.4 | > 4590 | –
8 | Cc1ccnc2c1NC(=O)c1cccnc1N2C1CC1 [NVP, Nevirapine, reference compound] | 186 ± 59 | – | > 9510 | – | – | 1400 ± 828 | 7.5 | 7820 ± 556 | 42 | > 9510 | NA (>51.1) | > 9510 | NA (>51) | 115 ± 24.5 | 0.6 | > 9510 | NA (>51.1) | > 9510 | NA (>51.1) | > 9510 | –
